EP3628664A1, “IRREVERSIBLE INHIBITORS OF KRAS G12C MUTANT” (Max-Planck-Gesellschaft zur Förderung der Wissenschaften …, priority 2018, dated 2020)

How the values were obtained:
[1] = biological target: T1, KRas G12C (Homo sapiens, UniProt P01116, G12C); assay: Tethering assay: covalent adduct formation determined by MALDI; format: binding; settings: 20 mM HEPES, pH 7.5, 150 mM NaCl, room temperature; for Covalent adduct formation 30 min: after 30 min; for Covalent adduct formation 24h: after 24h; for Covalent adduct formation 48h: after 48h
Procedure: Protein was incubated with the compounds in 20 mM HEPES, pH 7.5, 150 mM NaCl at room temperature for the specific times. For MALDI experiments, a saturated solution of sinapic acid (Aldrich) in H2O (0.1% TFA) / ACN (2:1) was used as matrix. 1 µL of the samples was mixed with 5 µL of matrix, and 1 µL of this mixture was placed on an MTP 384 ground steel target plate and dried in air. Mass spectra were obtained over the m/z range 17.000-21.000 using a Bruker UltrafleXtreme TOF/TOF mass spectrometer. […]

[2] = biological target: T1, KRas G12C; assay: Competitive LC-MS experiment with KRas G12C in the presence of glutathione; format: binding
Procedure: In competitive experiments it was shown that the inventive compounds bind selectively to the KRas G12C mutant in the presence of glutathione (GSH).
Cell indices ±s.d. were measured in technical triplicates and biological duplicates. Staurosporin was used as control compound.

[3] = LC-MS stability of compound with glutathione in PBS buffer at 37 °C; format: physicochemical
[4] = Hydrolysis stability in HEPES buffer (LC-MS); format: physicochemical; settings: HEPES buffer (pH 7.5), 37 °C, 24 hours
Procedure: Compound 4 was dissolved in HEPES (4-(2-hydroxyethyl)-1-piperazineethanesulfonic acid) buffer (pH 7.5) at 37 °C for 24 hours.

| SMILES | Covalent adduct formation 30 min [1] | Covalent adduct formation 24h [1] | Covalent adduct formation 48h [1] | covalent adduct formation with KRas G12C ([2]; in the presence of glutathione, after 1 hour) | incubation time after which compound remains unreacted ([3]; in the presence of glutathione) | formation of the glutathione-4 covalent adduct ([3]; mixture with glutathione) | stability ([3]; mixture with glutathione, up to 24 hours) | remaining at 18 h ([3]; pH 7.5, with glutathione, after 18 hours incubation time, read-out: compound remains unreacted) [%] | stability against hydrolysis [4] | glutathione-4 adduct formation ([2]; KRas G12C, compound 4 and glutathione, up to 5 hours) |
| --- | --- | --- | --- | --- | --- | --- | --- | --- | --- | --- |
| CC(C)(C)c1ccc(O)c(NCC(=O)N2CCN(C(=O)c3cnc(Cl)nc3)CC2)c1 [Compound 1, 2-((5-(tert-butyl)-2-hydroxyphenyl)amino)-1-(4-(2-chloropyrimidine-5-carbonyl)piperazin-1-yl)ethan-1-one] | +++ (covalent labeling > 90%) | +++ (covalent labeling > 90%) | +++ (covalent labeling > 90%) |  |  |  |  |  |  |  |
| CCC(C)(C)c1ccc(O)c(NCC(=O)N2CCN(C(=O)c3cnc(Cl)nc3)CC2)c1 [Compound 2, 1-(4-(2-chloropyrimidine-5-carbonyl)piperazin-1-yl)-2-((2-hydroxy-5-(tert-pentyl)phenyl)amino)ethan-1-one] | +++ (covalent labeling > 90%) | +++ (covalent labeling > 90%) | +++ (covalent labeling > 90%) |  |  |  |  |  |  |  |
| CC1(c2cc(NCC(=O)N3CCN(C(=O)c4cnc(Cl)nc4)CC3)c(O)cc2Cl)CC1 [Compound 5, 2-((4-chloro-2-hydroxy-5-(1-methylcyclopropyl)phenyl)amino)-1-(4-(2-chloropyrimidine-5-carbonyl)piperazin-1-yl)ethan-1-one] | +++ (covalent labeling > 90%) | +++ (covalent labeling > 90%) | +++ (covalent labeling > 90%) |  |  |  |  |  |  |  |
| CCC(C)(C)c1cc(NCC(=O)N2CCN(C(=O)c3ccnc(Cl)n3)CC2)c(O)cc1Cl [Compound 6, 2-((4-chloro-2-hydroxy-5-(tert-pentyl)phenyl)amino)-1-(4-(2-chloropyrimidine-4-carbonyl)piperazin-1-yl)ethan-1-one] | + (5 < covalent labeling ≤ 50) | ++ (50 < covalent labeling ≤ 90) | +++ (covalent labeling > 90%) |  |  |  |  |  |  |  |
| CC(C)(C)c1cc(NCC(=O)N2CCN(C(=O)c3cnc(Cl)cn3)CC2)c(O)cc1Cl [Compound 8, 2-((5-(tert-butyl)-4-chloro-2-hydroxyphenyl)amino)-1-(4-(5-chloropyrazine-2-carbonyl)piperazin-1-yl)ethan-1-one] | + (5 < covalent labeling ≤ 50) | ++ (50 < covalent labeling ≤ 90) | +++ (covalent labeling > 90%) |  |  |  |  |  |  |  |
| Cc1cc(C)c(NCC(=O)N2CCN(C(=O)c3cnc(Cl)nc3)CC2)c(C)c1 [Compound 9, 1-(4-(2-chloropyrimidine-5-carbonyl)piperazin-1-yl)-2-(mesitylamino)ethan-1-one] | +++ (covalent labeling > 90%) | +++ (covalent labeling > 90%) | +++ (covalent labeling > 90%) |  |  |  |  |  |  |  |

Further lines, with some results ahead:

| Covalent adduct formation 30 min [1] | Covalent adduct formation 24h [1] | Covalent adduct formation 48h [1] | covalent adduct formation with KRas G12C ([2]; in the presence of glutathione, after 1 hour) | incubation time after which compound remains unreacted ([3]; in the presence of glutathione) | formation of the glutathione-4 covalent adduct ([3]; mixture with glutathione) | stability ([3]; mixture with glutathione, up to 24 hours) | remaining at 18 h ([3]; pH 7.5, with glutathione, after 18 hours incubation time, read-out: compound remains unreacted) [%] | stability against hydrolysis [4] | SMILES | glutathione-4 adduct formation ([2]; KRas G12C, compound 4 and glutathione, up to 5 hours) |
| --- | --- | --- | --- | --- | --- | --- | --- | --- | --- | --- |
| +++ (covalent labeling > 90%) | +++ (covalent labeling > 90%) | +++ (covalent labeling > 90%) |  |  |  |  |  |  | CC(C)(C)c1cc(NCC(=O)N2CCN(C(=O)c3cnc(Cl)nc3)CC2)c(O)cc1Cl [Compound 3, 2-((5-(tert-butyl)-4-chloro-2-hydroxyphenyl)amino)-1-(4-(2-chloropyrimidine-5-carbonyl)piperazin-1-yl)ethan-1-one] |  |
| +++ (covalent labeling > 90%) | +++ (covalent labeling > 90%) | +++ (covalent labeling > 90%) | Nearly complete | more than 18 hours | occurs slowly | good stability | ~50 | stable against hydrolysis | CCC(C)(C)c1cc(NCC(=O)N2CCN(C(=O)c3cnc(Cl)nc3)CC2)c(O)cc1Cl [Compound 4, 2-((4-chloro-2-hydroxy-5-(tert-pentyl)phenyl)amino)-1-(4-(2-chloropyrimidine-5-carbonyl)piperazin-1-yl)ethan-1-one] | No glutathione-4 adduct formation could be observed |
| +++ (covalent labeling > 90%) | +++ (covalent labeling > 90%) | +++ (covalent labeling > 90%) |  |  |  |  |  |  | CCC(C)(C)c1cc(NCC(=O)N2CCN(S(=O)(=O)c3cnc(Cl)nc3)CC2)c(O)cc1Cl [Compound 7, 2-((4-chloro-2-hydroxy-5-(tert-pentyl)phenyl)amino)-1-(4-((2-chloropyrimidin-5-yl)sulfonyl)piperazin-1-yl)ethan-1-one] |  |
